This passage reports % of engagement, % of control and % binding results from ChEMBL document CHEMBL5465560, “Selectivity Literature for EUbOPEN Chemogenomic Library” (2024).

The target in experiment [1] is T1, Mitogen-activated protein kinase kinase kinase 3 (Homo sapiens) (UniProt Q99759).
T1 sequence (whole entry): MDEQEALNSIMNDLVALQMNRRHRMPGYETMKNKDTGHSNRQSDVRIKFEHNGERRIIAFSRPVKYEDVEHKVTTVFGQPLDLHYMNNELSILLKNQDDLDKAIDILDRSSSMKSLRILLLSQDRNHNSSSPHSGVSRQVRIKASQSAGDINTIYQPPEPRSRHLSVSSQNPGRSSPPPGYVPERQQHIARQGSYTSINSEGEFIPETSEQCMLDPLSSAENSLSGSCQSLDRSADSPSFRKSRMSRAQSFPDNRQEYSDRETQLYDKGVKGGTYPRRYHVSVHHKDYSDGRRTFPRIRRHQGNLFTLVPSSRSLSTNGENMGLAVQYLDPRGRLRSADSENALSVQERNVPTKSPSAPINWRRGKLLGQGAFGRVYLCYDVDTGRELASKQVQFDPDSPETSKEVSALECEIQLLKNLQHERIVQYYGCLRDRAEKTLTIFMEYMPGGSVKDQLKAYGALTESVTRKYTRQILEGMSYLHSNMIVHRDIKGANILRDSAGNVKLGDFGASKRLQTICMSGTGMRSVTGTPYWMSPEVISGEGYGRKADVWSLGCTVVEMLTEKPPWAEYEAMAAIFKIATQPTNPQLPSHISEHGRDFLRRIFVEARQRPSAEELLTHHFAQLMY
The experiment in a line: Selectivity interaction (Kinase panel (KiNativ target engagement assay in Jurkat cells)) EUB0001635a MAP3K3. It counts as cell-based. The settings on record: Selectivity number of off-targets 0.0, Selectivity number of targets 233.0, Source Knowledge https://www.sciencedirect.com/science/article/pii/S2451945619300674?via%3Dihub, at 1 µM.

Experiment [2] deals with Serine/threonine-protein kinase MARK1 (Homo sapiens) (UniProt Q9P0L2). The experiment in a line: Selectivity interaction (KinomeScan (DiscoverX)) EUB0000607a MARK1. Conditions: at 10 µM.
In experiment [3] the test system is Fibroblast growth factor receptor 3 (Homo sapiens), P22607 [G697C]. The experiment in a line: (§1) Selectivity interaction (KinomeScan (DiscoverX)) EUB0000666a FGFR3. The settings on record: at 10 µM.
For experiment [4], the target named is Fibroblast growth factor receptor 3 (Homo sapiens, UniProt P22607). The description is as §1. The settings on record: at 10 µM.
Experiment [5] concerns the target T2, Cyclin-dependent kinase-like 5 (Homo sapiens) (UniProt O76039).
T2 sequence (whole entry): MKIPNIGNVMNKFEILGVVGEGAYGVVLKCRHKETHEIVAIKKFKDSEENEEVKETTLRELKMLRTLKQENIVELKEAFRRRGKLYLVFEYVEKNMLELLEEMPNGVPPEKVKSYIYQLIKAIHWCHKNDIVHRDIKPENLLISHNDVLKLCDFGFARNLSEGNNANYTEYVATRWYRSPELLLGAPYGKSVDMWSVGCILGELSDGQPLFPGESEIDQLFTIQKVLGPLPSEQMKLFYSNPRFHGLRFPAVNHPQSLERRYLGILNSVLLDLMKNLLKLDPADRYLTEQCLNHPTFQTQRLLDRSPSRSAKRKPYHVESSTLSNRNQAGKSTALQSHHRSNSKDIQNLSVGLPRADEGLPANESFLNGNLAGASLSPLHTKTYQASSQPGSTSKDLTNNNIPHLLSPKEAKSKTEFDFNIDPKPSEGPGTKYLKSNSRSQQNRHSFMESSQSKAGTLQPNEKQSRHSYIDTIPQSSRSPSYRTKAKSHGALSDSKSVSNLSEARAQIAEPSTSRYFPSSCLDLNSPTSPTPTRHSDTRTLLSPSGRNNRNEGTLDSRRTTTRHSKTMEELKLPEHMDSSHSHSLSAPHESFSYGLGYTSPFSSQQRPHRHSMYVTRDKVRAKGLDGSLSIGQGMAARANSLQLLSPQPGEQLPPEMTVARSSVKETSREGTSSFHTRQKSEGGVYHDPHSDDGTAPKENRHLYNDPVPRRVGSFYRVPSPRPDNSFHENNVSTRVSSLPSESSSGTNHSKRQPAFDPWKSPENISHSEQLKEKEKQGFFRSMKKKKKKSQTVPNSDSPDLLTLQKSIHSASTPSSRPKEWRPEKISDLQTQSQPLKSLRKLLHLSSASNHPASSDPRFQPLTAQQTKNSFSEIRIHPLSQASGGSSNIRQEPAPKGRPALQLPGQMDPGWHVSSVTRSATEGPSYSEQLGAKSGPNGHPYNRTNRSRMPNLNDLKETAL
The experiment in a line: Selectivity interaction (KinomeScan (DiscoverX)) EUB0000229b CDKL5. Conditions: at 10 µM.

The target of experiment [6] is NT-3 growth factor receptor (Homo sapiens, UniProt Q16288). The experiment in a line: Selectivity interaction (KinomeScan (DiscoverX)) EUB0000045b NTRK3.
Experiment [7] has as its target T3, Tyrosine-protein kinase Mer (Homo sapiens) (UniProt Q12866).
T3 sequence (whole entry): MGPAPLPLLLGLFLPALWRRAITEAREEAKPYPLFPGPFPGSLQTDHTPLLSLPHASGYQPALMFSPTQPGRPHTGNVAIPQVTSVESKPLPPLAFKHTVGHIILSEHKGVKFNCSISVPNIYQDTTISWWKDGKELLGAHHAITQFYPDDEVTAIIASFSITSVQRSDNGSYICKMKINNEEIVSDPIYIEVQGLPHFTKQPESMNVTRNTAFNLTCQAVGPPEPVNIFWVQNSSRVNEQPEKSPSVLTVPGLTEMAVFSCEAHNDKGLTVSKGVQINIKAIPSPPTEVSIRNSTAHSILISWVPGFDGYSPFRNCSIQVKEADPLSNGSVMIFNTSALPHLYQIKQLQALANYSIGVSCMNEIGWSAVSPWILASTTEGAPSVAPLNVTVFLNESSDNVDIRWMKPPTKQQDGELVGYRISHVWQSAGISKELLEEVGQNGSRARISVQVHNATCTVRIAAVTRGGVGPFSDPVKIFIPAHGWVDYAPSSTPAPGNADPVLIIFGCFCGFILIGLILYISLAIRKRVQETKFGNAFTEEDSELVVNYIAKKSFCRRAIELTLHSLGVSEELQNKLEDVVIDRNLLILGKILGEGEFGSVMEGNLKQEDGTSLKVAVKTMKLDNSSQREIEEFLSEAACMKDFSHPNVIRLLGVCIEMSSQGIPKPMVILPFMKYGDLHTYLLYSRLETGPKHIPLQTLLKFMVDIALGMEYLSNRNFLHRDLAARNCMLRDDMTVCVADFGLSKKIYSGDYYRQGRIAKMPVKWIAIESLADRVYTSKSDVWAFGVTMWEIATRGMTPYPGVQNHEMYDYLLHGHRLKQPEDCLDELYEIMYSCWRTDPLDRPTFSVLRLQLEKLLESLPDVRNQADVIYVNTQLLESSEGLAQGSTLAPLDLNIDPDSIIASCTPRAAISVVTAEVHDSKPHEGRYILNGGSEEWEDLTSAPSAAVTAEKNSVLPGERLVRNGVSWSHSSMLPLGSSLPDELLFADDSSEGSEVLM
The experiment in a line: Selectivity interaction (KinomeScan (DiscoverX)) EUB0000595a MERTK. Conditions: at 10 µM.

Sequence of NT-3 growth factor receptor (Q16288 32-839 limits assumed): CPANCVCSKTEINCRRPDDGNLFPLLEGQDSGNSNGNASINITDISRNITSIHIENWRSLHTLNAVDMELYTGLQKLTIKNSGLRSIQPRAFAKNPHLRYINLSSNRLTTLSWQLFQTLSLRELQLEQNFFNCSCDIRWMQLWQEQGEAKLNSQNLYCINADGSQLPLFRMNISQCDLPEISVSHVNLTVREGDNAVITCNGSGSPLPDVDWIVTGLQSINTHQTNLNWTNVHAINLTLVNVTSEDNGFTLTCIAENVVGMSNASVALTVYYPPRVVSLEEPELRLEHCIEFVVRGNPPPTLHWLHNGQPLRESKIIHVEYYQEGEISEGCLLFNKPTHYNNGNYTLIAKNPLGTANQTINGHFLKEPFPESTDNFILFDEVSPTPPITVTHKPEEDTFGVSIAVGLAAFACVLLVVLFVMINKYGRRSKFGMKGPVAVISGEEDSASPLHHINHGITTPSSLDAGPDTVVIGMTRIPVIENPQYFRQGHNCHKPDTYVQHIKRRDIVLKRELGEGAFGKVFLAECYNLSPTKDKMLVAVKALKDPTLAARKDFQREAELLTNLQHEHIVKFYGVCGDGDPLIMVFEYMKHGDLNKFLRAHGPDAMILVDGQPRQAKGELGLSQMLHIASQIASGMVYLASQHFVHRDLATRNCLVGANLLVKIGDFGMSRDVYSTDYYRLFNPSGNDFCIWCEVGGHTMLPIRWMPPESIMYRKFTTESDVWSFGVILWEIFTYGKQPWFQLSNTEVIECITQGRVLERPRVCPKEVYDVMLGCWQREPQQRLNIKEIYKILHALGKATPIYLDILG
Sequence of Fibroblast growth factor receptor 3 (Homo sapiens), P22607 [G697C] (P22607 whole entry G697C): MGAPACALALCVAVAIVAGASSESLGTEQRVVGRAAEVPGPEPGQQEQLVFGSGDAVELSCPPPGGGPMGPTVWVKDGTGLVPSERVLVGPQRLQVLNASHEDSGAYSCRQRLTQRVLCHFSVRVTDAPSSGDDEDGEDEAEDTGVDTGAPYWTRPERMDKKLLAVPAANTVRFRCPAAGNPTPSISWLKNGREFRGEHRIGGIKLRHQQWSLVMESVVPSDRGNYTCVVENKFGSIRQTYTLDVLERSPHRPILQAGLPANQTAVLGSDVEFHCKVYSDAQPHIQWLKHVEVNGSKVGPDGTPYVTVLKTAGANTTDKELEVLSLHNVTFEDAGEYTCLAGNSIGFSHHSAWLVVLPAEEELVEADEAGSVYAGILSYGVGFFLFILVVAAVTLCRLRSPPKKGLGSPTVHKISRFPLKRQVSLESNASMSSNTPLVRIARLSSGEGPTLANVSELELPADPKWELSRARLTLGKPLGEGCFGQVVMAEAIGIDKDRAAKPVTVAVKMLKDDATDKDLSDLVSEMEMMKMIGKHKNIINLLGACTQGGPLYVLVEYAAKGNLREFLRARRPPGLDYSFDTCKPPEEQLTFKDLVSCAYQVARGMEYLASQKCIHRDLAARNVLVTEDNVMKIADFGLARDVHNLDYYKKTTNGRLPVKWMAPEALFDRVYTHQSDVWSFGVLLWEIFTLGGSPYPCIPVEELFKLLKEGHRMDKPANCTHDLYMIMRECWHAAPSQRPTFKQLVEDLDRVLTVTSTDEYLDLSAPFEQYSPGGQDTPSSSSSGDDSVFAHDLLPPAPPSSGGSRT
Sequence of Fibroblast growth factor receptor 3 (P22607 23-806 limits assumed): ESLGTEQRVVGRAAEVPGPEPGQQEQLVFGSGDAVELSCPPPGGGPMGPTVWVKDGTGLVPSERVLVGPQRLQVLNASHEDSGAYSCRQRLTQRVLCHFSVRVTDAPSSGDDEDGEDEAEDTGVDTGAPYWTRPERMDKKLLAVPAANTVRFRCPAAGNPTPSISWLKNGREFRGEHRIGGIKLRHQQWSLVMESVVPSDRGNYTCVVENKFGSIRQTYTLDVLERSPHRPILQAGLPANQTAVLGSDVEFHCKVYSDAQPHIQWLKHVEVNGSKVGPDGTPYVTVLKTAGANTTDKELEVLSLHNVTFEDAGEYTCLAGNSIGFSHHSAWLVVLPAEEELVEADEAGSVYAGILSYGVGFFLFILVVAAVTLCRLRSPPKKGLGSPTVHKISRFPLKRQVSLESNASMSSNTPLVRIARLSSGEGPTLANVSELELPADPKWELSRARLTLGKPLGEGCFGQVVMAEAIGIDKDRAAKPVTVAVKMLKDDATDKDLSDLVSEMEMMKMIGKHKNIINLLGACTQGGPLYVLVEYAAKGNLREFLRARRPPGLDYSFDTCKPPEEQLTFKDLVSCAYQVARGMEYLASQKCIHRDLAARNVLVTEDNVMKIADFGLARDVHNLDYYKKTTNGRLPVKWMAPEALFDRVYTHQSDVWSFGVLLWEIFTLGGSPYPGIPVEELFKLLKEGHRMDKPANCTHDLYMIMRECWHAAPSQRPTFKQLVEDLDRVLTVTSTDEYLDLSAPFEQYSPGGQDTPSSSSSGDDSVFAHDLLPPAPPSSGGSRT
Sequence of Serine/threonine-protein kinase MARK1 (Homo sapiens) (Q9P0L2 whole entry, looked up): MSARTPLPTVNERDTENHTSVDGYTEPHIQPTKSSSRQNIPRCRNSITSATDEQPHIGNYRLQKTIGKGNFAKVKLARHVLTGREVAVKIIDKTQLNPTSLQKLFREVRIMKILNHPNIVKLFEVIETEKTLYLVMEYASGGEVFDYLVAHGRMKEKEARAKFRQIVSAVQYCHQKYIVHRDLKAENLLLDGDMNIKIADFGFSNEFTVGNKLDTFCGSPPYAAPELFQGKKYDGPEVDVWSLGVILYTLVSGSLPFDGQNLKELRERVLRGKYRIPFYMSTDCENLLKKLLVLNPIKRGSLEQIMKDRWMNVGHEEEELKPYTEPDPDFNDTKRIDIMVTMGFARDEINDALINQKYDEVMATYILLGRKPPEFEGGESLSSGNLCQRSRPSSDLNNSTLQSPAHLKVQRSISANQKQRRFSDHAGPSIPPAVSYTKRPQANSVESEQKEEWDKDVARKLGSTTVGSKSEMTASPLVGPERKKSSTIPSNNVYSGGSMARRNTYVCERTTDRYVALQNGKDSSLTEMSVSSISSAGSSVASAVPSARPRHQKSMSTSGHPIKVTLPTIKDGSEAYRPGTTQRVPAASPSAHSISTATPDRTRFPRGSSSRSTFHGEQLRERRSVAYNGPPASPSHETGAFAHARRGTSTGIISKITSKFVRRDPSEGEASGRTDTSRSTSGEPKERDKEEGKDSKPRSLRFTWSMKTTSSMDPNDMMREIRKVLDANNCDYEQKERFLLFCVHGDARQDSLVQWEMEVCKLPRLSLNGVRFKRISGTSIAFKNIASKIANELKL

Consider `C=CC(=O)Nc1ccc(C(=O)Nc2[nH]nc3c2CN(C(=O)N[C@H](CN(C)C)c2ccccc2)C3(C)C)cc1`, for which the % of engagement in experiment [1] was found to be 4.7%. `CNC(=O)Nc1ccc(-c2nc(N3CC4CCC(C3)O4)c3cnn(C4CCC5(CC4)OCCO5)c3n2)cc1` yielded a % of control in experiment [2] of 100%. Regarding `O=C(NOC[C@H](O)CO)c1ccc(F)c(F)c1Nc1ccc(I)cc1F`, the % of control turned out to be 88% in experiment [3] and 100% in experiment [4]. With `COc1cc(N(C)c2ccnc3ccc(C(F)(F)F)cc23)cc(OC)c1OC`, the % binding in experiment [5] was determined as 86%. `C=CC(=O)Nc1cc(-n2c(=O)ccc3cnc4ccc(-c5ccc(NS(C)(=O)=O)cc5)cc4c32)ccc1C`: the % of control in experiment [6] (at 1 µM) and in experiment [6] (at 10 µM) was 100% each time. The compound `COCC(=O)NC/C=C/c1ccc2ncnc(Nc3ccc(Oc4ccc(C)nc4)c(C)c3)c2c1` [CP-724714] returned a % of control in experiment [7] of 97%.
